According to patent US20240270821A1, “GIP/GLP1/GCG TRI-RECEPTOR AGONISTS AND USES THEREOF” (priority 2023, published 2024):
Starred links: 1 amine or outer side, 2 acyl side, 3 side chain; linkers in the order of their positions; H or OH if unused. Non-standard residues stand in square brackets, D forms with d. Groups on a side chain read outwards from the residue. No end group written: not given here. *: point of attachment. C20 diacid = O=C(O)CCCCCCCCCCCCCCCCCCC(=O)*; C18 diacid = O=C(O)CCCCCCCCCCCCCCCCC(=O)*; γGlu = O=C(O)[C@H](CCC(=O)[*:2])N[*:1]; αMe4Pal = C[C@](N)(Cc1ccncc1)C(=O)O; αMeL = CC(C)C[C@](C)(N)C(=O)O; Orn = NCCC[C@H](N)C(=O)O; AEEA = NCCOCCOCC(=O)O; Aib = CC(C)(N)C(=O)O

Key:
Format in all cases: cell-based
hGIPR [1] = molecular target: T1, hGIPR (Homo sapiens, UniProt P48546); test: Functional cAMP activity in the presence of 1% HSA; conditions: read-out: cAMP Rel EC50, hGIPR
T1 sequence (P48546 22-466): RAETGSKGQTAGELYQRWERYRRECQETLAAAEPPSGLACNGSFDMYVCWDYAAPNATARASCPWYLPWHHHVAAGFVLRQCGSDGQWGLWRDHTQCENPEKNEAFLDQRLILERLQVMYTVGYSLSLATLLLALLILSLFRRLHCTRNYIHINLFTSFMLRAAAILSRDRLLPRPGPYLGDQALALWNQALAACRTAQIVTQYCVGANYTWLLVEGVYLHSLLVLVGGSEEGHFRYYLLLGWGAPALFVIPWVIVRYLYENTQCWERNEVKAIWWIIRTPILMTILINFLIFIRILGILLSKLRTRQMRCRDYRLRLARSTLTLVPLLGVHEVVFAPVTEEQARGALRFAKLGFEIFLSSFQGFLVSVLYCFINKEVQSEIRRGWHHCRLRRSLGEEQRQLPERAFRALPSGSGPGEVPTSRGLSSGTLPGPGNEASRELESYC

hGLP-1R [2] = molecular target: T2, hGLP-1R (Homo sapiens, UniProt P43220); test: Functional cAMP activity in the presence of 1% HSA; conditions: read-out: cAMP Rel EC50, hGLP-1R
T2 sequence (P43220 24-463): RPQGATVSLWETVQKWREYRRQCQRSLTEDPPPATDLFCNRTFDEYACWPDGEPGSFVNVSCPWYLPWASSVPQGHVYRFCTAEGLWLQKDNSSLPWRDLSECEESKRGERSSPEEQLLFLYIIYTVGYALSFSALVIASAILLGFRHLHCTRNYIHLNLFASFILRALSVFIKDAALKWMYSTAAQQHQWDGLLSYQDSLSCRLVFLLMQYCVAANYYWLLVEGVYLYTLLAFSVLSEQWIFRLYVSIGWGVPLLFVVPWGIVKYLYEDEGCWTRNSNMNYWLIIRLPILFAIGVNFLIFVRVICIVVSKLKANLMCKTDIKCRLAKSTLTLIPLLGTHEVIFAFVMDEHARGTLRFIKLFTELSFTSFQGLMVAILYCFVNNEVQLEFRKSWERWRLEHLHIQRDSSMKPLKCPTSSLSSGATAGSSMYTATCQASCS

human GcgR = human GcgR (Homo sapiens, UniProt P47871); test: Functional cAMP activity in the presence of 1% HSA; conditions: read-out: cAMP Rel EC50, hGcgR
Sequence of human GcgR (P47871 26-477): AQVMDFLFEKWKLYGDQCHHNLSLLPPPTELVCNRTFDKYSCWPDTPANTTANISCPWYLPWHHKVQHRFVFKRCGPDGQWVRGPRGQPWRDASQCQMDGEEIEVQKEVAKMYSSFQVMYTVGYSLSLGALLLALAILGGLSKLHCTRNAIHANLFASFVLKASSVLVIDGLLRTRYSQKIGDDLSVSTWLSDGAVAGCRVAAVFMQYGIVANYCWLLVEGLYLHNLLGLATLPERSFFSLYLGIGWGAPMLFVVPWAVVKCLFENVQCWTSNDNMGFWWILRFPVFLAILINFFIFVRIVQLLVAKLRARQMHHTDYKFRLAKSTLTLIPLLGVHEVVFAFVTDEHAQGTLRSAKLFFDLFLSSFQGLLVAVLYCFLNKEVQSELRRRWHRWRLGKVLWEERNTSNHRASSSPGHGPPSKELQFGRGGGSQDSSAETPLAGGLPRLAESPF

hGIPR [3] = molecular target: T1, hGIPR; test: Functional cAMP activation in the presence of 0.1% casein (no HSA); conditions: in the presence of 0.1% casein (no HSA); geometric mean; read-out: Relative cAMP EC50, hGIPR;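 as to Relative cAMP EC50, hGIPR: intracellular cAMP rise after 30 min at 37 °C read by HTRF against a standard curve, scaled between buffer alone (0%) and top control ligand concentration (100%), four-parameter fit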;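 as to Relative cAMP EC50, hGLP-1R: intracellular cAMP rise after 30 min at 37 °C read by HTRF, normalized between buffer only (0%) and maximal control ligand (100%), four-parameter variable-slope fit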;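 as to Relative cAMP EC50, hGcgR: intracellular cAMP rise after 30 min at 37 °C, read by HTRF against a cAMP standard curve, scaled from buffer only (0%) to maximal control ligand response (100%)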
hGLP-1R [4] = molecular target: T2, hGLP-1R; test: as above; conditions: in the presence of 0.1% casein (no HSA); geometric mean; read-out: Relative cAMP EC50, hGLP-1R
hGcgR = hGcgR (Homo sapiens, UniProt P47871); test: as above; conditions: in the presence of 0.1% casein (no HSA); geometric mean; read-out: Relative cAMP EC50, hGcgR;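 also: intracellular cAMP rise after 30 min at 37 °C, read by HTRF against a cAMP standard curve, scaled from buffer only (0%) to maximal control ligand response (100%)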
Sequence of hGcgR (P47871 26-477): as above

human GLP1-R = human GLP1-R (Homo sapiens, UniProt P43220); test: GLP1-R internalization assay in HEK293 cells; conditions: for EC50: HEK293 cells expressing SNAP-GLP-1R, read-out: GLP1R Internalization EC50; for Internalization % TOP: normalized to maximum concentration of GLP-1 (100%)
Sequence of human GLP1-R (P43220 24-463): as the sequence (P43220 24-463) above

Compound	EC50 (hGIPR [1]) [nM]	EC50 (hGLP-1R [2]) [nM]	EC50 (human GcgR) [nM]	EC50 (hGIPR [3]) [nM]	EC50 (hGLP-1R [4]) [nM]	EC50 (hGcgR) [nM]	EC50 (human GLP1-R) [nM]	Internalization % TOP (human GLP1-R) [%]
H-Y[Aib]QGTFTSDFSK[αMeL]LDKK([AEEA-γGlu-C20 diacid])AQ[Aib]AFIEYLLAGGPSSGAPPPSGE-NH2 [Example 11]	40.8	337	1700	0.233	2.07	12.5	75.1	73.8
H-Y[Aib]QGTFTSDFS[Orn][αMeL]LDKK([AEEA-γGlu-C18 diacid])AQ[αMe4Pal]AFIEYLIE[Aib]GESSGAPPPSGS-NH2 [Example 229]	27.8	249	332	0.179	1.58	2.3	42.4	31.4
H-Y[Aib]QGTFTSDFSK[αMeL]LDKK([AEEA-γGlu-C20 diacid])AQ[Aib]AFIEYLLAGGPSSGAPPPSGG-NH2 [Example 12]	30.2	216	1490	0.17	1.46	12.2	48.5	75.3
H-Y[Aib]QGTFTSDFSK[αMeL]LDKK([AEEA-γGlu-C20 diacid])AQ[Aib]AFIEYLLEGGPSSGAPPPGGS-NH2 [Example 18]	59.6	561	1210	0.337	2.31	2.7	91.8	74.1
Y[Aib]QGTFTSDFS[Orn][αMeL]LDKK([AEEA-γGlu-C18 diacid])AQ[Aib]AFIEYLLEGGPSSGAPPPSEG-NH2 [Example 50]	69.6	1110	1040	0.29	4.65	4.25	30.1	31.1
CC[C@H](C)[C@H](NC(=O)[C@H](Cc1ccccc1)NC(=O)[C@H](C)NC(=O)C(C)(C)NC(=O)[C@H](CCC(N)=O)NC(=O)[C@H](C)NC(=O)[C@H](CCCCNC(=O)CC[C@H](NC(=O)CC[C@H](NC(=O)CC[C@H](NC(=O)CCCCCCCCCCCCCCCCC(=O)O)C(=O)O)C(=O)O)C(=O)O)NC(=O)[C@H](CCCCN)NC(=O)[C@H](CC(=O)O)NC(=O)[C@H](CC(C)C)NC(=O)[C@](C)(CC(C)C)NC(=O)[C@H](CCCN)NC(=O)[C@H](CO)NC(=O)[C@H](Cc1ccccc1)NC(=O)[C@H](CC(=O)O)NC(=O)[C@H](CO)NC(=O)[C@@H](NC(=O)[C@H](Cc1ccccc1)NC(=O)[C@@H](NC(=O)CNC(=O)[C@H](CCC(N)=O)NC(=O)C(C)(C)NC(=O)[C@@H](N)Cc1ccc(O)cc1)[C@@H](C)O)[C@@H](C)O)C(=O)N[C@@H](CCC(=O)O)C(=O)N[C@@H](Cc1ccc(O)cc1)C(=O)N[C@@H](CC(C)C)C(=O)N[C@@H](CC(C)C)C(=O)N[C@@H](CCC(=O)O)C(=O)N[C@H](C)C(=O)NCC(=O)N1CCC[C@H]1C(=O)N[C@@H](CO)C(=O)N[C@@H](CO)C(=O)NCC(=O)N[C@@H](C)C(=O)N1CCC[C@H]1C(=O)N1CCC[C@H]1C(=O)N1CCC[C@H]1C(=O)N[C@@H](CO)C(=O)NCC(=O)N[C@H](C(N)=O)[C@@H](C)O [Example 205]	24.4	234	397	0.16	2.71	8.98	49.4	67.7
H-Y[Aib]QGTFTSDFS[Orn][αMeL]LDKK([AEEA-γGlu-C18 diacid])AQ[Aib]AFIEYLLAGGPSSGEPPPSGE-NH2 [Example 97]	23.9	605	1270	0.176	3.23	6.73	51.9	50.7
H-Y[Aib]QGTFTSDFS[Orn][αMeL]LDKK([AEEA-AEEA-γGlu-C18 diacid])AQ[Aib]AFIEYLLE[dA]GPSSGHPPPSGS-NH2 [Example 253]	26.6	355	963	0.115	2.2	6.62	81.6	55.2
H-Y[Aib]QGTFTSDFS[Orn][αMeL]LDKK([AEEA-γGlu-C18 diacid])AQ[Aib]AFIEWLLEGGSSSGAPPPSGS-NH2 [Example 173]	49.9	293	745	0.168	2.32	3.6	97.1	38.6
